Assay results reported in patent US4775692A, “2,5,6,7-tetranor-4,8-inter-m-phenylene PGI2 derivatives” (Toray Industries, Inc., priority 1986, dated 1988).
Read-outs that look alike come from different tables or passages of the source.

Legend:
corpus of stomach = assay: Gastric cytoprotection effect (lesion length / ulcer index after oral 0.2N NaOH); type: in vivo; settings: 1 h, 30 min before oral 0.2N NaOH, lesion measured one hour later, read-out: Gastric cytoprotection effect ED50 (dose reducing the sore to 50% of control)
Description: Gastric cytoprotection effect
Gastric cytoprotection effect was studied according to the method by A. Robert (Gastroenterology, 77(3), 443, (1979)). Thirty min. after oral administration of the compound according to the invention, 0.2N NaOH was orally applied to the animals.
One hour later, the animals were killed under anesthesia by chloroform. The stomach was removed and fixed in a solution of 5% formalin. After fixation, the stomach was cut along the greater curvature. A total length of the lesion appearing on the corpus of stomach was then measured and served as an ulcer index.
The dose of the compound which may reduce the sore to 50% of that of the control was designated as ED50.
The gastric cytoprotection effects of the compounds according to the invention, which is thus represented by ED50, are summarized in Table 1.

gastric acid secretion [1] = assay: Inhibiting effect of gastric acid secretion, perfused stomach, pentagastrin-stimulated (Ghosh & Schild); type: in vivo, male SD rat; settings: urethane-anesthetized SD rat, pentagastrin 0.05 μg/kg/min, injected through femoral vein; ratio of area index to that of PGE2
Protocol: (§1) Inhibiting effect of gastric acid secretion
A male SD rat was incised in the abdomen under anesthesia by urethane and the lumen of a stomach was perfused with a physiolosical saline solution through a double-cannula inserted into a lumen of the stomach. A pH of a draining gastric acid was monitored using a pH-meter (M. Ghosh, H. Schild, Br. J. Pharmacol. 13, 54 (1958)). The secretion of gastric acid was stimulated by a continuous infusion of the pentagastrin at a rate of 0.05 μg/kg/min. When the pH of gastric acid became stable value of about 4, the compound was injected through a femoral vein. As an index of the inhibiting effect of gastric acid secretion by the compound was calculated from the area surrounded by the curve drawn by the time course of the pH of gastric acid, from the point increase by the injection of the compound and to the point it came back to baseline. The index thus obtained was compared to that of PGE2 and a ratio therebetween was shown in Table 3, as a relative effect of the compound.

[2] = tested on: blood pressure of the carotid; assay: Hypotensive effect (carotid blood pressure, anesthetized rat); type: in vivo; settings: chloralose-anesthetized Wistar male rat, injected via catheter connected to femoral artery; read-out: Hypotensive effect ED25 (dose reducing blood pressure by 25 mmHg)
Protocol: A catheter was inserted to a carotid of the Wistar male rat under chloralose anesthesia. Another end of the catheter was connected to a polygraph with a pressure-transducer to detect a blood pressure of the carotid. The compound was injected via catheter connected to a femoral artery. The dose of the compound which may reduce the blood pressure in an amount of 25 mmHg was designated as ED25.

gastric acid secretion [3] = assay: Inhibiting effect of gastric acid secretion, pylorus-ligated rat (Shay); type: in vivo; settings: pylorus ligation, injected into duodenum, 5 hours
Protocol: as §1
Under anesthesia by ether, the abdomen of the rat was incised in its median and a pylorus was ligated with silk thread according to Shay (Gastroenterology 5, 43 (1945)). Simultaneously, the compound was injected into a duodenum of the rat and then the incision was closed.
Five hours later, the median-incision of the abdomen was again performed and the esophargus was ligated and then the whole stomach was removed.
The stomach was cut along a greater curvature and the contents thereof was transferred into a graduated centrifuge tube. After centrifugation at 3,000 rpm for 10 min., a volume of a gastric juice was measured and a part of its supernatant was titrated to pH 7 with 0.1N NaOH using a pH-stat (Radio meter).
The mean dose of the compounds which may reduce the volume of gastric juice (ml) and acidity (mEq/ml) of a group of five animals to 50% of that of the controls were designated respectively as ED50.

[4] = acidity (mEq/ml) to 50% of controls, read-out: Inhibiting effect of gastric acid secretion ED50, Acidity
[5] = volume (ml) to 50% of controls, read-out: Inhibiting effect of gastric acid secretion ED50, Volume of the gastric juice

| SMILES | ED50 (corpus of stomach) [mg/kg] | Inhibiting effect of gastric acid secretion, Relative effect (PGE2 = 1) (gastric acid secretion [1]) | ED (25 mmHg) [2] [mg/kg] | ED50 (gastric acid secretion [3]; [4]) [mg/kg] | ED50 (gastric acid secretion [3]; [5]) [mg/kg] |
| --- | --- | --- | --- | --- | --- |
| CCCC(C)(C)[C@H](O)/C=C/[C@@H]1[C@H]2c3cccc(OCC(=O)O)c3O[C@H]2C[C@H]1O (relative stereo) [Compound 176, 16,16-Dimethyl-2,5,6,7,20-pentanor-4-oxa-4,8-inter-m-phenylene PGI2] | 0.0041 | 48 | 0.00069 | – | – |
| CCCCC(C)(C)[C@H](O)/C=C/[C@@H]1[C@H]2c3cccc(OCC(=O)O)c3O[C@H]2C[C@H]1O (relative stereo) [Compound 180, 16,16-Dimethyl-2,5,6,7-tetranor-4-oxa-4,8-inter-m-phenylene PGI2] | 0.0029 | 72 | 0.00069 | 1.78 | 0.51 |
| CC(C)C(C)(C)[C@H](O)/C=C/[C@@H]1[C@H]2c3cccc(OCC(=O)O)c3O[C@H]2C[C@H]1O (relative stereo) [Compound 196, 16,16,17-Trimethyl-2,5,6,7,19,20-hexanor-4-oxa-4,8 inter-m-phenylene PGI2] | 0.15 | – | – | – | – |
| CC(C)(C1CCCCC1)[C@H](O)/C=C/[C@@H]1[C@H]2c3cccc(OCC(=O)O)c3O[C@H]2C[C@H]1O (relative stereo) [Compound 248, 16-cyclohexyl-16-methyl-2,5,6,7,18,19,20-heptanor-4-oxa-4,8-inter-m-phenylene PGI2] | 0.0311 | 13 | 0.011 | – | – |
| CC(C)(CC1CCCCC1)[C@H](O)/C=C/[C@@H]1[C@H]2c3cccc(OCC(=O)O)c3O[C@H]2C[C@H]1O (relative stereo) [Compound 252, 17-cyclohexyl-16,16-dimethyl-2,5,6,7,18,19,20-heptanor-4-oxa-4,8-inter-m-phenylene PGI2] | 0.0065 | 13 | 0.0056 | – | – |
| CC(C)(c1ccccc1)[C@H](O)/C=C/[C@@H]1[C@H]2c3cccc(OCC(=O)O)c3O[C@H]2C[C@H]1O (relative stereo) [Compound 293, 16-methyl-16-phenyl-2,5,6,7,18,19,20-heptanor-4-oxa-4,8-inter-m-phenylene PGI2] | – | 4.8 | 0.046 | – | – |
| COCC(C)(C)[C@H](O)/C=C/[C@@H]1[C@H]2c3cccc(OCC(=O)O)c3O[C@H]2C[C@H]1O (relative stereo) [Compound 301, 16,16-Dimethyl-2,5,6,7,20-pentanor-4,18-dioxa-4,8-inter-m-phenylene PGI2] | 0.0385 | 16 | 0.00036 | – | – |
| O=C(O)COc1cccc2c1O[C@H]1C[C@@H](O)[C@H](/C=C/[C@@H](O)COc3ccccc3)[C@@H]21 (relative stereo) [Compound 313, 16-Phenoxy-2,5,6,7,17,18,19,20-octanor-4-oxa-4,8-inter-m-phenylene PGI2] | 0.0211 | 53 | 0.0021 | 0.31 | 0.42 |
| CC(C)(Oc1ccccc1)[C@H](O)/C=C/[C@@H]1[C@H]2c3cccc(OCC(=O)O)c3O[C@H]2C[C@H]1O (relative stereo) [Compound 317, 16-Methyl-16-phenoxy-2,5,6,7,18,19,20-heptanor-4-oxa-4,8-inter-m-phenylene PGI2] | 0.00049 | 62 | 0.0013 | – | – |
| CC(C)(Oc1ccccc1)[C@H](O)/C=C/[C@@H]1[C@H]2c3cccc(C#CC(=O)O)c3O[C@H]2C[C@H]1O (relative stereo) [Compound 371, 16-Methyl-16-phenoxy-2,5,6,7,18,19,20-heptanor-3,3,4,4-tetradehydro-4,8-inter-m-phenylene PGI2] | 0.0279 | 8 | 0.0024 | 4.6 | > 10 |
| CCCCC[C@H](O)/C=C/[C@H]1[C@H](O)CC(=O)[C@@H]1C/C=C\CCCC(=O)O [PGE2, reference compound] | – | 1 | – | – | – |
